Structures are written as SMILES.

In general, IC50 refers to the midpoint of a concentration-inhibition curve.

The target of the experiment is PI3K (Homo sapiens, UniProt P42336). In words: Fluorescence polarization assay for PI3K.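 Further: PI3K kinase reaction on PIP2 with ATP, 30-60 min, product sensed by GST-GRP with red probe in fluorescence polarization (mP), controls without enzyme and at zero time.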 It is filed as biochemical. The settings on record: PI3Kα; read-out: PI3Kα IC50. In general terms: Fluorescence polarisation rises when a labelled molecule tumbles more slowly, as on binding a larger partner.
Sequence of PI3K (P42336 whole entry): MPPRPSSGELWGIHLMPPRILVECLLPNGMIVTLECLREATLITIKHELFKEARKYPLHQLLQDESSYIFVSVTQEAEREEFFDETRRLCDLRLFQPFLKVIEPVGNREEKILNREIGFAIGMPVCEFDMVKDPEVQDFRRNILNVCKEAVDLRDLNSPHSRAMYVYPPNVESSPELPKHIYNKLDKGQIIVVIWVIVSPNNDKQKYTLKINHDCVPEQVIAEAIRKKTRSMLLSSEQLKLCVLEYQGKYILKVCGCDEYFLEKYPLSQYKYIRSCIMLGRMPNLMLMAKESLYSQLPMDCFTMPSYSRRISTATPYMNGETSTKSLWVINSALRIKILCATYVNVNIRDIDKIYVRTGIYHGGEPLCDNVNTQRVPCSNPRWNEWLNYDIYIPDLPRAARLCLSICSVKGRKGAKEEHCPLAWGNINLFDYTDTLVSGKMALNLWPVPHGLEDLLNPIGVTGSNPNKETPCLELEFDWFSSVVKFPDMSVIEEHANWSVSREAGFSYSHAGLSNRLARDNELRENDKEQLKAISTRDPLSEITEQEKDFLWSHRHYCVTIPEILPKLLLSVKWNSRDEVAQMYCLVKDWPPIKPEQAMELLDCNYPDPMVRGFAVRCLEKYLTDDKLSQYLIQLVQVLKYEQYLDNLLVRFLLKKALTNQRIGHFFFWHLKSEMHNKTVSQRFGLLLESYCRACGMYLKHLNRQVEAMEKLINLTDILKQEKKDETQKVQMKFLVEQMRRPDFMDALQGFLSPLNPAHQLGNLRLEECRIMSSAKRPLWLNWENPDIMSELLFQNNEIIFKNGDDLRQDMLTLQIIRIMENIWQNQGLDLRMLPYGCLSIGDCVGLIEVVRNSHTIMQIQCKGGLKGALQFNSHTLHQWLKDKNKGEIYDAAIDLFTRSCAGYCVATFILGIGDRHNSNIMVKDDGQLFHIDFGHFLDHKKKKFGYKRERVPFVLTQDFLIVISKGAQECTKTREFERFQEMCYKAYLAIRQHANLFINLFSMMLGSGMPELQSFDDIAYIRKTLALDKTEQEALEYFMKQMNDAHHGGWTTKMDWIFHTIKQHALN
Sequence of PI3K (P27986 whole entry partner): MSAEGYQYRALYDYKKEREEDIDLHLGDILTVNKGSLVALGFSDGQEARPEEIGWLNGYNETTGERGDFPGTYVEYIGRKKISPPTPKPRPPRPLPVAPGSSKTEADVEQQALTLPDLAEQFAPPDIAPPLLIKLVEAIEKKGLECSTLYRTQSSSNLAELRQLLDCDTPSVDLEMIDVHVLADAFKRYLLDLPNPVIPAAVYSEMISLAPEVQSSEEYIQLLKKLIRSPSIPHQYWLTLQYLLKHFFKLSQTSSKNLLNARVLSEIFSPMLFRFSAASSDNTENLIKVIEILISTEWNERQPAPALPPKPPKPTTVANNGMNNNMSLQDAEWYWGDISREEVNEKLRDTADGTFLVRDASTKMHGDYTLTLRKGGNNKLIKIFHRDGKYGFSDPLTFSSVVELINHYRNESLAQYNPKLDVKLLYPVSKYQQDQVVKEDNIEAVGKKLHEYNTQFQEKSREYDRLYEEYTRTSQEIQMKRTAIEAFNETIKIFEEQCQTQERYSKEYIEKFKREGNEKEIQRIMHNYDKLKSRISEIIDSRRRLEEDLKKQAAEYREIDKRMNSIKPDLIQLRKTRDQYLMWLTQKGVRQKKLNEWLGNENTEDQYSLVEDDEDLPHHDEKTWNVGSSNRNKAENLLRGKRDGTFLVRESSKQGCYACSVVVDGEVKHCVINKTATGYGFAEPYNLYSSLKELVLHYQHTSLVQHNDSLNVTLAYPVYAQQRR
In the case of `c1ccc(CN2CCC(n3ncc4c(N5CCOCC5)nc(-c5ccc6ncccc6c5)nc43)CC2)cc1` [Compound 369, 6-[1-(1-benzylpiperidin-4-yl)-4-morpholin-4-yl-1H-pyrazolo[3,4-d]pyrimidin-6-yl]quinoline], the IC50 turned out to be 0.466 µM. With `NC(=O)Cc1ccc(-c2nc(N3CCOCC3)c3cnn(C4CCN(Cc5ccccc5)CC4)c3n2)cc1` [Compound 370, 2-{4-[1-(1-benzylpiperidin-4-yl)-4-morpholin-4-yl-1H-pyrazolo[3,4-d]pyrimidin-6-yl]phenyl}acetamide] the figure was 3.13 µM. With `O=C(NCc1ccco1)Nc1ccc(-c2nc(N3CCOCC3)c3cnn(C4CCN(Cc5cccnc5)CC4)c3n2)cc1` [Compound 376, 1-(2-furylmethyl)-3-(4-{4-morpholin-4-yl-1-[1-(pyridin-3-ylmethyl)piperidin-4-yl]-1H-pyrazolo[3,4-d]pyrimidin-6-yl}phenyl)urea] the figure was 0.359 µM; with `c1cncc(CN2CCC(n3ncc4c(N5CCOCC5)nc(-c5ccc6c(c5)CCN6)nc43)CC2)c1` [Compound 416, 6-(2,3-dihydro-1H-indol-5-yl)-4-morpholin-4-yl-1-[1-(pyridin-3-ylmethyl)piperidin-4-yl]-1H-pyrazolo[3,4-d]pyrimidine], 1.49 µM. With `Nc1cc(F)c(-c2nc(N3CCOCC3)c3cnn(C4CCN(C(=O)c5cccnc5)CC4)c3n2)cc1F` [Compound 464, 2,5-difluoro-4-{4-morpholin-4-yl-1-[1-(pyridin-3-ylcarbonyl)piperidin-4-yl]-1H-pyrazolo[3,4-d]pyrimidin-6-yl}aniline] the figure was 3.62 µM. For `C[C@@H]1CN(c2nc(-c3cccc(O)c3)nc3c2cnn3-c2ccccc2)C[C@H](C)O1` [Compound 478, 3-{4-[(2R,6S)-2,6-dimethylmorpholin-4-yl]-1-phenyl-1H-pyrazolo[3,4-d]pyrimidin-6-yl}phenol], the IC50 was 9.5 µM. With `CCNC(=O)Nc1ccc(-c2nc(N3CCOCC3)c3cnn(C4CCN(Cc5cccnc5)CC4)c3n2)cn1` [Compound 479, 1-ethyl-3-(5-{4-morpholin-4-yl-1-[1-(pyridin-3-ylmethyl)piperidin-4-yl]-1H-pyrazolo[3,4-d]pyrimidin-6-yl}pyridin-2-yl)urea] the figure was 0.138 µM.

For the molecule `NCCC(=O)Nc1ccc(-c2nc(N3CCOCC3)c3cn[nH]c3n2)cc1` [Compound 529, N-[4-(4-morpholin-4-yl-1H-pyrazolo[3,4-d]pyrimidin-6-yl)phenyl]-b-alaninamide], the IC50 worked out at 0.202 µM. The result for `Nc1ccc(-c2nc(N3CCOCC3)c3cn[nH]c3n2)cc1` [Compound 531, 4-(4-morpholin-4-yl-1H-pyrazolo[3,4-d]pyrimidin-6-yl)aniline] reads 1.61 µM; that for `CNC(=O)Nc1ccc(-c2nc(N3CCOCC3)c3cnn(-c4ccccc4)c3n2)cc1` [Compound 543, 1-methyl-3-[4-(4-morpholin-4-yl-1-phenyl-1H-pyrazolo[3,4-d]pyrimidin-6-yl)phenyl]urea], 0.05 µM; that for `CCOC(=O)Nc1ccc(-c2nc(N3CCOCC3)c3cnn(C4CCN(C(=O)c5ccccc5)CC4)c3n2)cc1` [Compound 628, ethyl {4-[1-(1-benzoylpiperidin-4-yl)-4-morpholin-4-yl-1H-pyrazolo[3,4-d]pyrimidin-6-yl]phenyl}carbamate], 1.58 µM. With `O=C(NCCO)Nc1ccc(-c2nc(N3CCOCC3)c3cnn(C4CCN(C(=O)c5ccccc5)CC4)c3n2)cc1` [Compound 630, 1-{4-[1-(1-benzoylpiperidin-4-yl)-4-morpholin-4-yl-1H-pyrazolo[3,4-d]pyrimidin-6-yl]phenyl}-3-(2-hydroxyethyl)urea] the figure was 0.229 µM; with `CNCCNC(=O)Nc1ccc(-c2nc(N3CCOCC3)c3cnn(C4CCN(C(=O)c5ccccc5)CC4)c3n2)cc1` [Compound 631, 1-{4-[1-(1-benzoylpiperidin-4-yl)-4-morpholin-4-yl-1H-pyrazolo[3,4-d]pyrimidin-6-yl]phenyl}-3-[2-(methylamino)ethyl]urea], 0.048 µM; with `CNC(=O)Nc1ccc(-c2nc(N3CCOCC3)c3cnn(C4CCN(Cc5ccc(Cl)cc5)CC4)c3n2)cc1` [Compound 639, 1-(4-{1-[1-(4-chlorobenzyl)piperidin-4-yl]-4-morpholin-4-yl-1H-pyrazolo[3,4-d]pyrimidin-6-yl}phenyl)-3-methylurea], 0.018 µM. The result for `CNC(=O)Nc1ccc(-c2nc(N3CCOCC3)c3cnn(C4CCN(Cc5cccc(Cl)c5)CC4)c3n2)cc1` [Compound 640, 1-(4-{1-[1-(3-chlorobenzyl)piperidin-4-yl]-4-morpholin-4-yl-1H-pyrazolo[3,4-d]pyrimidin-6-yl}phenyl)-3-methylurea] reads 0.042 µM; that for `CNC(=O)Nc1ccc(-c2nc(N3CCOCC3)c3cnn(C4CCN(Cc5ccc(OC)c(O)c5)CC4)c3n2)cc1` [Compound 643, 1-(4-{1-[1-(3-hydroxy-4-methoxybenzyl)piperidin-4-yl]-4-morpholin-4-yl-1H-pyrazolo[3,4-d]pyrimidin-6-yl}phenyl)-3-methylurea], 0.057 µM. Turning to `CNC(=O)Nc1ccc(-c2nc(N3CCOCC3)c3cnn(C4CCN(Cc5cccc(OC)c5)CC4)c3n2)cc1` [Compound 645, 1-(4-{1-[1-(3-methoxybenzyl)piperidin-4-yl]-4-morpholin-4-yl-1H-pyrazolo[3,4-d]pyrimidin-6-yl}phenyl)-3-methylurea], the IC50 stood at 0.043 µM.

Consider `CNC(=O)Nc1ccc(-c2nc(N3CCOCC3)c3cnn(C4CCN(C)CC4)c3n2)cc1` [Compound 646, 1-methyl-3-{4-[1-(1-methylpiperidin-4-yl)-4-morpholin-4-yl-1H-pyrazolo[3,4-d]pyrimidin-6-yl]phenyl}urea], for which the IC50 stood at 0.211 µM.

Regarding `CNC(=O)Nc1ccc(-c2nc(N3CCOCC3)c3cnn(C4CCN(Cc5ccco5)CC4)c3n2)cc1` [Compound 647, 1-(4-{1-[1-(2-furylmethyl)piperidin-4-yl]-4-morpholin-4-yl-1H-pyrazolo[3,4-d]pyrimidin-6-yl}phenyl)-3-methylurea], the IC50 amounted to 0.063 µM. Take `CNC(=NC#N)Nc1ccc(-c2nc(N3CCOCC3)c3cnn(C4CCN(Cc5cccnc5)CC4)c3n2)cc1` [Compound 651, 2-cyano-1-methyl-3-(4-{4-morpholin-4-yl-1-[1-(pyridin-3-ylmethyl)piperidin-4-yl]-1H-pyrazolo[3,4-d]pyrimidin-6-yl}phenyl)guanidine]: the IC50 was 0.774 µM. Consider `CCNC(=NC#N)Nc1ccc(-c2nc(N3CCOCC3)c3cnn(C4CCN(Cc5cccnc5)CC4)c3n2)cc1` [Compound 652, 2-cyano-1-ethyl-3-(4-{4-morpholin-4-yl-1-[1-(pyridin-3-ylmethyl)piperidin-4-yl]-1H-pyrazolo[3,4-d]pyrimidin-6-yl}phenyl)guanidine], for which the IC50 was 0.916 µM.

For the molecule `N#CNC(=O)Nc1ccc(-c2nc(N3CCOCC3)c3cnn(C4CCN(Cc5cccnc5)CC4)c3n2)cc1` [Compound 653, N′-cyano-N-(4-{4-morpholin-4-yl-1-[1-(pyridin-3-ylmethyl)piperidin-4-yl]-1H-pyrazolo[3,4-d]pyrimidin-6-yl}phenyl)carbamimidic acid], the IC50 amounted to 0.363 µM. With `N#CN=C(N)Nc1ccc(-c2nc(N3CCOCC3)c3cnn(C4CCN(C(=O)c5cccnc5)CC4)c3n2)cc1` [Compound 655, 2-cyano-1-(4-{4-morpholin-4-yl-1-[1-(pyridin-3-ylcarbonyl)piperidin-4-yl]-1H-pyrazolo[3,4-d]pyrimidin-6-yl}phenyl)guanidine] the figure was 0.344 µM; with `CNC(=NC#N)Nc1ccc(-c2nc(N3CCOCC3)c3cnn(C4CCN(C(=O)c5cccnc5)CC4)c3n2)cc1` [Compound 656, 2-cyano-1-methyl-3-(4-{4-morpholin-4-yl-1-[1-(pyridin-3-ylcarbonyl)piperidin-4-yl]-1H-pyrazolo[3,4-d]pyrimidin-6-yl}phenyl)guanidine], 0.382 µM; with `O=C(Nc1ccc(-c2nc(N3CCOCC3)c3cnn(C4CCN(C(=O)c5cccnc5)CC4)c3n2)cc1)NC1CC1` [Compound 659, 1-cyclopropyl-3-(4-{4-morpholin-4-yl-1-[1-(pyridin-3-ylcarbonyl)piperidin-4-yl]-1H-pyrazolo[3,4-d]pyrimidin-6-yl}phenyl)urea], 0.357 µM.

On to `CNC(=O)Nc1ccc(-c2nc(N3CCOCC3)c3cnn(C4CCN(C(=O)c5ccncc5)CC4)c3n2)cc1` [Compound 661, 1-{4-[1-(1-isonicotinoylpiperidin-4-yl)-4-morpholin-4-yl-1H-pyrazolo[3,4-d]pyrimidin-6-yl]phenyl}-3-methylurea], for which the IC50 came out at 0.16 µM.

Regarding `CNC(=O)Nc1ccc(-c2nc(N3CCOCC3)c3cnn(C4CCN(C(=O)c5cnccn5)CC4)c3n2)cc1` [Compound 666, 1-methyl-3-(4-{4-morpholin-4-yl-1-[1-(pyrazin-2-ylcarbonyl)piperidin-4-yl]-1H-pyrazolo[3,4-d]pyrimidin-6-yl}phenyl)urea], the IC50 was 0.198 µM.

For the molecule `CNC(=O)Nc1ccc(-c2nc(N3CCOCC3)c3cnn(C4CCN(Cc5ccncc5)CC4)c3n2)cc1` [Compound 670, 1-methyl-3-(4-{4-morpholin-4-yl-1-[1-(pyridin-4-ylmethyl)piperidin-4-yl]-1H-pyrazolo[3,4-d]pyrimidin-6-yl}phenyl)urea], the IC50 was found to be 0.112 µM. The result for `Nc1cccc(-c2nc(N3CCOCC3)c3cnn(C4CCN(C(=O)c5cccnc5)CC4)c3n2)n1` [Compound 680, 6-{4-morpholin-4-yl-1-[1-(pyridin-3-ylcarbonyl)piperidin-4-yl]-1H-pyrazolo[3,4-d]pyrimidin-6-yl}pyridin-2-amine] reads 4.99 µM; that for `COC(=O)Nc1ccc(-c2nc(N3CCOCC3)c3cnn(C4CCN(C(=O)c5ccccc5)CC4)c3n2)cc1` [Compound 686, methyl {4-[1-(1-benzoylpiperidin-4-yl)-4-morpholin-4-yl-1H-pyrazolo[3,4-d]pyrimidin-6-yl]phenyl}carbamate], 1.01 µM; that for `COC(=O)Nc1ccc(-c2nc(N3CCOCC3)c3cnn(C4CCN(C(=O)c5ccc(F)cc5)CC4)c3n2)cc1` [Compound 689, methyl (4-{1-[1-(4-fluorobenzoyl)piperidin-4-yl]-4-morpholin-4-yl-1H-pyrazolo[3,4-d]pyrimidin-6-yl}phenyl)carbamate], 0.989 µM.

(Values after patent publication US20080234262A1 (Wyeth, priority 2007, published 2008).)
